Data on 22 compounds can be found in patent publication US9464081B2, “Pyrrolidine derivatives and their use as complement pathway modulators” (priority 2012, dated 2016).

This experiment deals with Recombinant human factor D (Homo sapiens (Human), UniProt P00746). As to the kind of experiment: Human Complement Factor D Assay: Method 1. As to conditions: 10 nM recombinant human factor D, substrate Z-Lys-thiobenzyl, fluorescence readout, read-out: IC50 Factor D inhibition. The experiment is classed as biochemical. As to the method:
Human Complement Factor D Assay: Method 1
Recombinant human factor D (expressed in E. coli and purified using standard methods) at 10 nM concentration is incubated with test compound at various concentrations for 1 hour at room temperature in 0.1 M Hepes buffer, pH 7.5, containing 1 mM MgCl2, 1 M NaCl and 0.05% CHAPS. A synthetic substrate Z-Lys-thiobenzyl and 2,4-dinitrobenzenesulfonyl-fluoresceine are added to final concentrations of 200 μM and 25 μM, respectively. The increase in fluorescence is recorded at excitation of 485 nm and emission at 535 nm in a microplate spectrofluorimeter. IC50 values are calculated from percentage of inhibition of complement factor D-activity as a function of test compound concentration.
Factor D Inhibition Data Using Method 1 to Determine the IC50s.

The structures appear in SMILES notation.

Sequence of Recombinant human factor D (P00746 26-253): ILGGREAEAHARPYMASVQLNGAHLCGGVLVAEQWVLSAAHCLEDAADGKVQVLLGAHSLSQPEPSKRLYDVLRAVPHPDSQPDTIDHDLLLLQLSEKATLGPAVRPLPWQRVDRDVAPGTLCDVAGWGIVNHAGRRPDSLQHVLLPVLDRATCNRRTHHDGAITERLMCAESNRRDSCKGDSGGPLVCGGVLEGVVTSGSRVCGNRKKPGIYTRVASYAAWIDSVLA

With `CC(=O)c1nn(CC(=O)N2[C@@H]3C[C@@H]3C[C@H]2C(=O)NCC(F)=C(C)C)c2ccc(OCc3ncccn3)cc12` [Example 16, (1R,3S,5R)-2-{2-[3-Acetyl-5-(pyrimidin-2-ylmethoxy)-indazol-1-yl]-acetyl}-2-aza-bicyclo[3.1.0]hexane-3-carboxylic acid (2-fluoro-3-methyl-but-2-enyl)-amide], the IC50 was determined as 0.007 µM. For the compound `CC(C)=C(F)[C@H](C)NC(=O)[C@@H]1C[C@H]2C[C@H]2N1C(=O)Cn1nc(C(N)=O)c2ccccc21` [Example 21, 1-(2-((1R,3S,5R)-3-((S)-3-fluoro-4-methylpent-3-en-2-ylcarbamoyl)-2-azabicyclo[3.1.0]hexan-2-yl)-2-oxoethyl)-1H-indazole-3-carboxamide], the IC50 came out at 1.8 µM.

For `CC(C)=C(F)CNC(=O)[C@@H]1C[C@@H](F)CN1C(=O)Cn1nc(C(N)=O)c2ccccc21` [Example 7, 1-{2-[(2S,4R)-4-Fluoro-2-(2-fluoro-3-methyl-but-2-enylcarbamoyl)-pyrrolidin-1-yl]-2-oxo-ethyl}-1H-indazole-3-carboxylic acid amide], the IC50 is 0.056 µM. Next, `[2H]C([2H])([2H])C(=C(F)CNC(=O)[C@@H]1C[C@H]2C[C@H]2N1C(=O)Cn1nc(C(N)=O)c2ccccc21)C([2H])([2H])[2H]` [Example 18, 1-{2-[(1R,3S,5R)-3-(2-Fluoro-3-di-(trideutero-methyl)-allylcarbamoyl)-2-aza-bicyclo[3.1.0]hex-2-yl]-2-oxo-ethyl}-1H-indazole-3-carboxylic acid amide]: 0.05 µM; `CO[C@H]1[C@@H](C(=O)NCC(F)=C(C)C)N(C(=O)Cn2nc(C(N)=O)c3ccccc32)C[C@@H]1F` [Example 8, 1-{2-[(2S,3S,4S)-4-Fluoro-2-(2-fluoro-3-methyl-but-2-enylcarbamoyl)-3-methoxy-pyrrolidin-1-yl]-2-oxo-ethyl}-1H-indazole-3-carboxylic acid amide]: 0.059 µM. The value for `CO[C@H]1[C@@H](C(=O)NCC(F)=C(C)C)N(C(=O)Cn2nc(C(N)=O)c3ccncc32)C[C@@H]1F` [Example 5, 1-{2-[(2S,3S,4S)-4-Fluoro-2-(2-fluoro-3-methyl-but-2-enylcarbamoyl)-3-methoxy-pyrrolidin-1-yl]-2-oxo-ethyl}-1H-pyrazolo[3,4-c]pyridine-3-carboxylic acid amide] was 0.253 µM. Next, `NC(=O)c1nn(CC(=O)N2[C@@H]3C[C@@H]3C[C@H]2C(=O)NCC(F)=C2CCCC2)c2ccccc12` [Example 17, 1-{2-[(1R,3S,5R)-3-(2-Cyclopentylidene-2-fluoro-ethylcarbamoyl)-2-aza-bicyclo[3.1.0]hex-2-yl]-2-oxo-ethyl}-1H-indazole-3-carboxylic acid amide]: 0.128 µM. On to `CC(C)=C(F)CNC(=O)[C@@H]1C[C@@]2(CO)C[C@H]2N1C(=O)Cn1nc(C(N)=O)c2ccccc21` [Example 6, 1-{2-[(1R,3S,5S)-3-(2-Fluoro-3-methyl-but-2-enylcarbamoyl)-5-hydroxymethyl-2-aza-bicyclo[3.1.0]hex-2-yl]-2-oxo-ethyl}-1H-indazole-3-carboxylic acid amide], for which the IC50 was 0.099 µM.

Take `CC(C)=C(F)CNC(=O)[C@@H]1C[C@H]2C[C@H]2N1C(=O)Cn1nc(C(N)=O)c2cc(C)nc(C)c21` [Example 9, 1-{2-[(1R,3S,5R)-3-(2-Fluoro-3-methyl-but-2-enylcarbamoyl)-2-aza-bicyclo[3.1.0]hex-2-yl]-2-oxo-ethyl}-5,7-dimethyl-1H-pyrazolo[3,4-c]pyridine-3-carboxylic acid amide]: the IC50 was found to be 0.356 µM.

On to `CC(=O)c1nn(CC(=O)N2[C@@H]3C[C@@H]3C[C@H]2C(=O)NCC(F)=C(C)C)c2ccccc12` [Example 11, (1R,3S,5R)-2-[2-(3-Acetyl-indazol-1-yl)-acetyl]-2-aza-bicyclo[3.1.0]hexane-3-carboxylic acid (2-fluoro-3-methyl-but-2-enyl)-amide], for which the IC50 worked out at 0.019 µM. The value for `CC(C)=C(F)CNC(=O)[C@@H]1C[C@@H](F)CN1C(=O)Cn1nc(C(N)=O)c2ccncc21` [Example 3, 1-{2-[(2S,4R)-4-Fluoro-2-(2-fluoro-3-methyl-but-2-enylcarbamoyl)-pyrrolidin-1-yl]-2-oxo-ethyl}-1H-pyrazolo[3,4-c]pyridine-3-carboxylic acid amide] was 0.255 µM. Next, `NC(=O)c1nn(CC(=O)N2[C@@H]3C[C@@H]3C[C@H]2C(=O)NC/C(F)=C/C(F)(F)F)c2ccccc12` [Example 20, 1-(2-oxo-2-((1R,3S,5R)-3-(((Z)-2,4,4,4-tetrafluorobut-2-en-1-yl)carbamoyl)-2-azabicyclo[3.1.0]hexan-2-yl)ethyl)-1H-indazole-3-carboxamide]: 0.09 µM; `CC(C)=C(F)CNC(=O)[C@@H]1C[C@H]2C[C@H]2N1C(=O)Cn1nc(C(N)=O)c2cc(C)ncc21` [Example 12, 1-{2-[(1R,3S,5R)-3-(2-Fluoro-3-methyl-but-2-enylcarbamoyl)-2-aza-bicyclo[3.1.0]hex-2-yl]-2-oxo-ethyl}-5-methyl-1H-pyrazolo[3,4-c]pyridine-3-carboxylic acid amide]: 0.074 µM. For the compound `CC(C)=C(F)CNC(=O)[C@@H]1C[C@H]2C[C@H]2N1C(=O)Cn1nc(C(N)=O)c2ccc(Cl)cc21` [Example 1, 6-Chloro-1-{2-[(1R,3S,5R)-3-(2-fluoro-3-methyl-but-2-enylcarbamoyl)-2-aza-bicyclo[3.1.0]hex-2-yl]-2-oxo-ethyl}-1H-indazole-3-carboxylic acid amide], the IC50 stood at 0.033 µM.

On to `CC(C)=C(F)CNC(=O)[C@@H]1C[C@H]2C[C@H]2N1C(=O)Cn1nc(C(N)=O)c2ccccc21` [Example 2, 1-{2-[(1R,3S,5R)-3-(2-Fluoro-3-methyl-but-2-enylcarbamoyl)-2-aza-bicyclo[3.1.0]hex-2-yl]-2-oxo-thyl}-1H-indazole-3-carboxylic acid amide], for which the IC50 is 0.035 µM. The value for `CCc1cc2c(C(N)=O)nn(CC(=O)N3[C@@H]4C[C@@H]4C[C@H]3C(=O)NCC(F)=C(C)C)c2cn1` [Example 15, 5-Ethyl-1-{2-[(1R,3S,5R)-3-(2-fluoro-3-methyl-but-2-enylcarbamoyl)-2-aza-bicyclo[3.1.0]hex-2-yl]-2-oxo-ethyl}-1H-pyrazolo[3,4-c]pyridine-3-carboxylic acid amide] was 0.043 µM; that for `CC(=O)c1nn(CC(=O)N2[C@@H]3C[C@@H]3C[C@H]2C(=O)NCC(F)=C(C)C)c2cnccc12` [Example 13, (1R,3S,5R)-2-[2-(3-Acetyl-pyrazolo[3,4-c]pyridin-1-yl)-acetyl]-2-aza-bicyclo[3.1.0]hexane-3-carboxylic acid (2-fluoro-3-methyl-but-2-enyl)-amide] was 0.037 µM. The value for `CC(C)=C(F)CNC(=O)[C@@H]1C[C@H]2C[C@H]2N1C(=O)Cn1nc(C(N)=O)c2ccnc(C)c21` [Example 14, 1-{2-[(1R,3S,5R)-3-(2-Fluoro-3-methyl-but-2-enylcarbamoyl)-2-aza-bicyclo[3.1.0]hex-2-yl]-2-oxo-ethyl}-7-methyl-1H-pyrazolo[3,4-c]pyridine-3-carboxylic acid amide] was 0.063 µM; that for `CC(C)=C(F)C(C)NC(=O)[C@@H]1C[C@H]2C[C@H]2N1C(=O)Cn1nc(C(N)=O)c2ccccc21` (stereo partly drawn) [Example 19, 1-{2-[(1R,3S,5R)-3-(2-Fluoro-1,3-dimethyl-but-2-enylcarbamoyl)-2-aza-bicyclo[3.1.0]hex-2-yl]-2-oxo-ethyl}-1H-indazole-3-carboxylic acid amide] was 0.007 µM. As for `CC(C)=C(F)CNC(=O)[C@@H]1C[C@H]2C[C@H]2N1C(=O)Cn1nc(C(N)=O)c2ccncc21` [Example 10, 1-{2-[(1R,3S,5R)-3-(2-Fluoro-3-methyl-but-2-enylcarbamoyl)-2-aza-bicyclo[3.1.0]hex-2-yl]-2-oxo-ethyl}-1H-pyrazolo[3,4-c]pyridine-3-carboxylic acid amide], the 50% inhibitory concentration (IC50) was 0.078 µM.

Turning to `CC(C)=C(F)CNC(=O)[C@@H]1C[C@H]2C[C@H]2N1C(=O)Cn1nc(C(N)=O)c2ccc(C)cc21` [Example 4, 1-{2-[(1R,3S,5R)-3-(2-Fluoro-3-methyl-but-2-enylcarbamoyl)-2-aza-bicyclo[3.1.0]hex-2-yl]-2-oxo-ethyl}-6-methyl-1H-indazole-3-carboxylic acid amide], the IC50 turned out to be 0.45 µM. Next, `CC(C)=C(F)[C@@H](C)NC(=O)[C@@H]1C[C@H]2C[C@H]2N1C(=O)Cn1nc(C(N)=O)c2ccccc21` [Example 22, 1-(2-((1R,3S,5R)-3-((R)-3-fluoro-4-methylpent-3-en-2-ylcarbamoyl)-2-azabicyclo[3.1.0]hexan-2-yl)-2-oxoethyl)-1H-indazole-3-carboxamide]: 0.006 µM.

Usually IC50 stands for the concentration that inhibits the measured activity by half.
